Laboratory results: US8431514B2, “4-cyano-3-benzoylamino-N-phenyl-benzamides for use in pest control” (Syngenta Crop Protection LLC, priority 2009, dated 2013)

How the values were obtained:
Format in all cases: in vivo
[1] = tested on: Thrips tabaci; experiment: Thrips tabaci (onion thrips) sunflower leaf disc spray test; details: foliar, 168 h, application rate 200 ppm, sunflower leaf discs, population of mixed ages, mortality after 7 days
Protocol: (§1) These Examples illustrate the insecticidal and acaricidal properties of the compounds of formula (I). The tests were performed as follows:
(§2) Cotton leaf discs were placed on agar in a 24-well microtiter plate and sprayed with test solutions at an application rate of 200 ppm. After drying, the leaf discs were infested with 5 L1 larvae. The samples were checked for mortality, feeding behavior, and growth regulation 3 days after treatment (DAT). The following compound gave at least 80% control of Spodoptera littoralis: A1, A2, A3, A4, A5, A6, A7, A8, A9, A10, A11, A12, A14, A15, A16, A17, A18, A19, A20. Heliothis Virescens (Tobacco Budworm): Eggs (0-24 h old) were placed in 24-well microtiter plate on artificial diet and treated with test solutions at an application rate of 200 ppm (concentration in well 18 ppm) by pipetting. After an incubation period of 4 days, samples were checked for egg mortality, larval mortality, and growth regulation. The following compound gave at least 80% control of Heliothis virescens: A1, A2, A3, A4, A5, A6, A7, A8, A9, A10, A11, A12, A14, A15, A16, A17, A18, A19, A20. Plutella Xylostella (Diamond Back Moth): 24-well microtiter plate (MTP) with artificial diet was treated with test solutions at an application rate of 200 ppm (concentration in well 18 ppm) by pipetting. After drying, the MTP's were infested with L2 larvae (7-12 per well). After an incubation period of 6 days, samples were checked for larval mortality and growth regulation. The following compound gave at least 80% control of Plutella xylostella: A1, A2, A3, A4, A5, A6, A7, A8, A9, A10, A11, A12, A13, A14, A15, A16, A17, A18, A19, A20. Diabrotica Balteata (Corn Root Worm): A 24-well microtiter plate (MTP) with artificial diet was treated with test solutions at an application rate of 200 ppm (concentration in well 18 ppm) by pipetting. After drying, the MTP's were infested with L2 larvae (6-10 per well). After an incubation period of 5 days, samples were checked for larval mortality and growth regulation. The following compound gave at least 80% control of Diabrotica balteata: A1, A2, A3, A4, A5, A6, A7, A8, A9, A10, A11, A12, A13, A14, A16, A17, A18, A19, A20. Thrips Tabaci (Onion Thrips): Sunflower leaf discs were placed on agar in a 24-well microtiter plate and sprayed with test solutions at an application rate of 200 ppm. After drying, the leaf discs were infested with an […] population of mixed ages. After an incubation period of 7 days, samples were checked for mortality. The following compounds gave at least 80% control of Thrips tabaci: A1, A2, A3, A4, A5, A6, A7, A8, A9, A10, A14, A16, A17, A18, A19, A20. Tetranychus Urticae (Two-Spotted Spider Mite): Bean leaf discs on agar in 24-well microtiter plates were sprayed with test solutions at an application rate of 200 ppm. After drying, the leaf discs are infested with mite populations of mixed ages. 8 days later, discs are checked for egg mortality, larval mortality, and adult mortality. The following compounds gave at least 80% control of Tetranychus urticae: A1, A2, A3, A4, A5, A6, A7, A8, A9, A10, A11, A12, A13, A14, A15, A16, A17, A19, A20.

[2] = tested on: Heliothis virescens; experiment: Heliothis virescens (tobacco budworm) egg test on artificial diet; details: 96 h, application rate 200 ppm (concentration in well 18 ppm), eggs 0-24 h old on artificial diet, egg mortality, larval mortality and growth regulation after 4 days
Protocol: as §1, §2

[3] = tested on: Plutella xylostella; experiment: Plutella xylostella (diamond back moth) artificial diet test; details: 144 h, application rate 200 ppm (concentration in well 18 ppm), L2 larvae, larval mortality and growth regulation after 6 days
Protocol: as §1, §2

[4] = tested on: Spodoptera littoralis; experiment: Spodoptera littoralis (Egyptian cotton leafworm) leaf disc spray test; details: foliar, 72 h, application rate 200 ppm, cotton leaf discs, 5 L1 larvae, mortality, feeding behavior and growth regulation 3 days after treatment
Protocol: as §1, §2

[5] = tested on: Diabrotica balteata; experiment: Diabrotica balteata (corn root worm) artificial diet test; details: 120 h, application rate 200 ppm (concentration in well 18 ppm), L2 larvae, larval mortality and growth regulation after 5 days
Protocol: as §1, §2

[6] = tested on: Tetranychus urticae; experiment: Tetranychus urticae (two-spotted spider mite) bean leaf disc spray test; details: foliar, 192 h, application rate 200 ppm, bean leaf discs, mite populations of mixed ages, egg, larval and adult mortality 8 days later, read-out: control of Tetranychus urticae
Protocol: as §1, §2

Measured: pest or weed control at 200 ppm

CCc1cc(C(F)(C(F)(F)F)C(F)(F)C(F)(F)F)cc(C)c1NC(=O)c1ccc(C#N)c(NC(=O)c2ccc(C#N)cc2C)c1 (stereo not shown) [A1, 4-cyano-3-(4′-cyano-2′-methylbenzoylamino)-N-[2-ethyl-6-methyl-4-(1,2,2,3,3,3-hexafluoro-1-trifluoromethylpropyl)phenyl]benzamide]
≥ 80%: all assays above

Cc1cc(C#N)ccc1C(=O)Nc1cc(C(=O)Nc2c(Cl)cc(C(F)(C(F)(F)F)C(F)(F)C(F)(F)F)cc2Br)ccc1C#N (stereo not shown) [A2, N-[2-bromo-6-chloro-4-(1,2,2,3,3,3-hexafluoro-1-trifluoromethylpropyl)-phenyl]-4-cyano-3-(4′-cyano-2′-methylbenzoylamino)benzamide]
≥ 80%: all assays above

Cc1cc(C#N)ccc1C(=O)Nc1cc(C(=O)Nc2c(Br)cc(C(F)(C(F)(F)F)C(F)(F)F)cc2Br)ccc1C#N [A3, 4-cyano-3-(4′-cyano-2′-methylbenzoylamino)-N-[2,6-dibromo-4-(1,2,2,2-tetrafluoro-1-trifluoromethylethyl)phenyl]benzamide]
≥ 80%: all assays above

Cc1cc(C#N)ccc1C(=O)Nc1cc(C(=O)Nc2c(Br)cc(C(F)(C(F)(F)F)C(F)(F)C(F)(F)F)cc2Br)ccc1C#N (stereo not shown) [A4, 4-cyano-3-(4′-cyano-2′-methylbenzoylamino)-N-[2,6-dibromo-4-(1,2,2,3,3,3-hexafluoro-1-trifluoromethylpropyl)phenyl]benzamide]
≥ 80%: all assays above

CCc1cc(C(F)(C(F)(F)F)C(F)(F)C(F)(F)F)cc(Br)c1NC(=O)c1ccc(C#N)c(NC(=O)c2ccc(C#N)cc2C)c1 (stereo not shown) [A5, N-[2-bromo-6-ethyl-4-(1,2,2,3,3,3-hexafluoro-1-trifluoromethylpropyl)-phenyl]-4-cyano-3-(4′-cyano-2′-methylbenzoylamino)benzamide]
≥ 80%: all assays above

Cc1cc(C#N)ccc1C(=O)Nc1c(C#N)ccc(C(=O)Nc2c(Cl)cc(C(F)(C(F)(F)F)C(F)(F)C(F)(F)F)cc2Br)c1F (stereo not shown) [A6, N-[2-bromo-6-chloro-4-(1,2,2,3,3,3-hexafluoro-1-trifluoromethylpropyl)-phenyl]-4-cyano-3-(4′-cyano-2′-methylbenzoylamino)-2-fluorobenzamide]
≥ 80%: all assays above

Cc1cc(C#N)ccc1C(=O)Nc1cc(C(=O)Nc2c(Cl)cc(C(F)(C(F)(F)F)C(F)(F)C(F)(F)F)cc2C#N)ccc1C#N (stereo not shown) [A7, N-[2-chloro-6-cyano-4-(1,2,2,3,3,3-hexafluoro-1-trifluoromethylpropyl)-phenyl]-4-cyano-3-(4′-cyano-2′-methylbenzoylamino)benzamide]
≥ 80%: all assays above

COc1cc(C(F)(C(F)(F)F)C(F)(F)C(F)(F)F)cc(C)c1NC(=O)c1ccc(C#N)c(NC(=O)c2ccc(C#N)cc2C)c1 (stereo not shown) [A11, 4-cyano-3-(4′-cyano-2′-methylbenzoylamino)-N-[2-methoxy-6-methyl-4-(1,2,2,3,3,3-hexafluoro-1-trifluoromethylpropyl)phenyl]benzamide]
not listed: [1]
≥ 80%: all other assays above

Cc1cc(C#N)ccc1C(=O)Nc1cc(C(=O)Nc2c(Cl)cc(C(OC(=O)c3ccccc3)(C(F)(F)F)C(F)(F)F)cc2Br)ccc1C#N [A12, benzoic acid 1-{3-bromo-5-chloro-4-[4-cyano-3-(4-cyano-2-methyl-benzoylamino)benzoylamino]phenyl}-2,2,2-trifluoro-1-trifluoromethylethyl ester]
not listed: [1]
≥ 80%: all other assays above

Cc1cc(C#N)ccc1C(=O)Nc1cc(C(=O)Nc2c(Cl)cc(C(O)(C(F)(F)F)C(F)(F)F)cc2Br)ccc1C#N [A13, N-[2-bromo-6-chloro-4-[1,1,1,3,3,3-hexafluoropropan-2-ol)phenyl]-4-cyano-3-(4′-cyano-2′-methylbenzoylamino)benzamide]
≥ 80%: [3] | [5] | [6]

CCc1cc(C(O)(C(F)(F)F)C(F)(F)C(F)(F)F)cc(C)c1NC(=O)c1ccc(C#N)c(NC(=O)c2ccc(C#N)cc2C)c1 (stereo not shown) [A15, 4-cyano-3-(4′-cyano-2′-methyl-benzoylamino)-N-[2-ethyl-6-methyl-4-(2,2,3,3,3-pentafluoro-1-hydroxy-1-trifluoromethylpropyl)phenyl]benzamide]
≥ 80%: [2] | [3] | [4] | [6]

Cc1cc(C#N)ccc1C(=O)Nc1c(C#N)ccc(C(=O)Nc2c(Cl)cc(C(F)(C(F)(F)F)C(F)(F)C(F)(F)F)cc2Cl)c1F (stereo not shown) [A18, 4-cyano-3-(4′-cyano-2′-methylbenzoylamino)-N-[2,6-dichloro-4-(1,2,2,3,3,3-hexafluoro-1-trifluoromethylpropyl)phenyl]-2-fluorobenzamide]
not listed: [6]
≥ 80%: all other assays above
